This note sets out measurements from BindingDB's records for doi:10.1021/jm060947x (Institut D'Investigacions Biomèdiques August Pi I, 2007).

A short description of assay [1]: Displacement of [3H]SCH 23390 from dopamine D1 receptor in lamb striatum membrane after 1 hr.
Assay [2] is described as follows: Displacement of [3H]YM 09151-2 from dopamine D2 receptor in lamb striatum membrane after 2 hrs.
The nature of assay [3]: Displacement of [3H]R-PIA from adenosine A1 receptor in lamb striatum membrane after 1 hr.

For `CN1C[C@H](C(=O)N[C@@H](Cc2ccc([N+](=O)[O-])cc2)C(=O)N[C@@H](Cc2ccc(F)cc2)C(=O)N2CCCC(C(N)=O)C2)C=C2c3cccc4[nH]cc(c34)C[C@H]21` (stereo partly drawn) [(6aR,9R)-N-((S)-1-((S)-1-(3-carbamoylpiperidin-1-yl)-3-(4-fluorophenyl)-1-oxopropan-2-ylamino)-3-(4-nitrophenyl)-1-oxopropan-2-yl)-7-methyl-4,6,6a,7,8,9-hexahydroindolo[4,3-fg]quinoline-9-carboxamide], the Kd amounted to 700 nM in assay [1] and 20 nM in assay [2].
Turning to `CC(C)[C@H](NC(=O)[C@H](Cc1ccc([N+](=O)[O-])cc1)NC(=O)[C@@H]1C=C2c3cccc4[nH]cc(c34)C[C@H]2N(C)C1)C(=O)N1c2ccccc2C[C@H]1C(N)=O` [(6aR,9R)-N-((S)-1-((S)-1-((S)-2-carbamoylindolin-1-yl)-3-methyl-1-oxobutan-2-ylamino)-3-(4-nitrophenyl)-1-oxopropan-2-yl)-7-methyl-4,6,6a,7,8,9-hexahydroindolo[4,3-fg]quinoline-9-carboxamide], the Kd in assay [2] turned out to be 2000 nM; in assay [3], 100 nM.
Take `CC(C)[C@H](NC(=O)[C@@H]1C=C2c3cccc4[nH]cc(c34)C[C@H]2N(C)C1)C(=O)N[C@@H](Cc1ccc(F)cc1)C(=O)N1CCC[C@H]1C(N)=O` [(6aR,9R)-N-((S)-1-((S)-1-((S)-2-carbamoylpyrrolidin-1-yl)-3-(4-fluorophenyl)-1-oxopropan-2-ylamino)-3-methyl-1-oxobutan-2-yl)-7-methyl-4,6,6a,7,8,9-hexahydroindolo[4,3-fg]quinoline-9-carboxamide]: the Kd in assay [1] came to 600 nM; in assay [2] it was 16000 nM.
As for `CC(C)[C@H](NC(=O)[C@@H]1C=C2c3cccc4[nH]cc(c34)C[C@H]2N(C)C1)C(=O)N[C@@H](Cc1ccc([N+](=O)[O-])cc1)C(=O)N1CCC[C@H]1C(N)=O` [(6aR,9R)-N-((S)-1-((S)-1-((S)-2-carbamoylpyrrolidin-1-yl)-3-(4-nitrophenyl)-1-oxopropan-2-ylamino)-3-methyl-1-oxobutan-2-yl)-7-methyl-4,6,6a,7,8,9-hexahydroindolo[4,3-fg]quinoline-9-carboxamide], binding in assay [1] was put at a Kd of 7800 nM.
Consider `CC(C)[C@H](NC(=O)[C@H](CCC1CCCCC1)NC(=O)[C@@H]1C=C2c3cccc4[nH]cc(c34)C[C@H]2N(C)C1)C(=O)N1CCC[C@H]1C(N)=O` [(6aR,9R)-N-((S)-1-((S)-1-((S)-2-carbamoylpyrrolidin-1-yl)-3-methyl-1-oxobutan-2-ylamino)-4-cyclohexyl-1-oxobutan-2-yl)-7-methyl-4,6,6a,7,8,9-hexahydroindolo[4,3-fg]quinoline-9-carboxamide], for which, in assay [1], the Kd stood at 1200 nM.
In assay [1], `CC(C)[C@H](NC(=O)[C@H]1C=C2c3cccc4[nH]cc(c34)C[C@H]2N(C)C1)C(=O)N[C@@H](Cc1ccc([N+](=O)[O-])cc1)C(=O)N1CCC[C@H]1C(N)=O` [(6aR,9S)-N-((S)-1-((S)-1-((S)-2-carbamoylpyrrolidin-1-yl)-3-(4-nitrophenyl)-1-oxopropan-2-ylamino)-3-methyl-1-oxobutan-2-yl)-7-methyl-4,6,6a,7,8,9-hexahydroindolo[4,3-fg]quinoline-9-carboxamide] had a Kd of 700 nM. This Kd lies about 1.7-fold lower than the previous one.
